Values of other authors, collected in US8318912B2, “Targeted immune conjugate comprising an antibody to glycophorin A and a M2e peptide” (priority 2006, dated 2012).

Molecular target: vitamin B12-binding protein
Conditions: alternative docking pair to biotin-avidin; read-out: Kd of vitamin B12 bound by vitamin B12-binding protein

Substance: cyanocobalamin [vitamin B12]
- Kd: 0.1 nM
